Like-named read-outs stand apart in the source and are kept apart here.
Key:
[1] = tested on: Staphlococcus epidermidis; test: Growth inhibition of a relevant micro-organism by chelator; type: cell-based; conditions: chelator at 3×10^−6 mol.dm^−3 or less
From the text: Inhibition is considered significant when growth of the relevant micro-organism on a supporting medium can be reduced by at least 30% preferably by at least 45%.

relevant micro-organism = conditions: cited from earlier work

| SMILES | Significant inhibition of growth (reduced by at least 30%) [1] | also measured |
| --- | --- | --- |
| O=C(O)CN(CC(=O)O)[C@@H]1CCCC[C@H]1N(CC(=O)O)CC(=O)O (relative stereo) [CDTA, trans-1,2-diaminocyclohexane-N,N,N′,N′-tetraacetic acid] | exclude | – |
| O=C(O)CN(CCN(CC(=O)O)CC(=O)O)CCN(CC(=O)O)CC(=O)O [DTPA, diethylenetriaminepentaacetic acid] | capable of achieving significant inhibition | – |
| O=C(O)CN(CCN(CC(=O)O)CC(=O)O)CC(=O)O [EDTA, ethylenediaminetetraacetic acid] | exclude | – |
| O=C(O)CN(CCN(CCN(CC(=O)O)CC(=O)O)CC(=O)O)CCN(CC(=O)O)CC(=O)O [TTHA, triethylenetetraaminehexaacetic acid] | capable of achieving significant inhibition | – |
| CCO [ethanol] | – | MIC (relevant micro-organism; ethanol and similar alkanols): greater than 1 mg.ml^−1 |
| CC(C)=CCCC(C)=CCCC(C)=CCO [farnesol, 3,7,11-trimethyldodeca-2,6,10-trienol] | – | MIC (relevant micro-organism; literature values): ca. 25 μg.ml^−1 |
| Oc1cc(Cl)ccc1Oc1ccc(Cl)cc1Cl [triclosan, 2′,4,4′-trichloro-2′-hydroxydiphenyl ether] | – | MIC (relevant micro-organism; literature values): 0.01 to 10 µg/mL |

— patent publication US20010033854A1, “Anti-microbial compositions” (priority 2000, published 2001)
